Data on 13 compounds can be found in article PMC9032718, “Eltrombopag as an Allosteric Inhibitor of the METTL3-14 Complex Affecting the m^6A Methylation of RNA in Acute Myeloid Leukemia Cells” (Pharmaceuticals, 2022).

In one data set the target is T1, DOT1L (Homo sapiens, UniProt Q8TEK3).
T1 construct: purchased Reaction Biology (Malvern, PA, USA), contract assay
Put plainly: Methyltransferase selectivity panel (MT HotSpot radioisotope assay), DOT1L. It counts as biochemical. The procedure:
(§1) The selectivity profile of eltrombopag was investigated by testing the level of inhibition in a methyltransferase panel. The inhibition of 7 […] methyltransferase was tested at Reaction Biology (Malvern, PA, USA) using a gold standard radioisotope-based MT assay (MT HotSpot^TM) with 10 μM of eltrombopag in duplicate.

The target of a further data set is T2, METTL3-14 complex (Homo sapiens, UniProt Q86U44).
T2 construct: genes encoding the full-length and MTase domain of human METTL3; METTL3-14 FL: full length of METTL3-14; 10x His (thrombin-cleavable) (cleaved yes); made in house; host or cells: Trichoplusia ni (Hi5) cells co-infected with two baculoviruses (virus made in Sf9)
T2 sequence (Q86U44 whole entry, the tested form may be a part): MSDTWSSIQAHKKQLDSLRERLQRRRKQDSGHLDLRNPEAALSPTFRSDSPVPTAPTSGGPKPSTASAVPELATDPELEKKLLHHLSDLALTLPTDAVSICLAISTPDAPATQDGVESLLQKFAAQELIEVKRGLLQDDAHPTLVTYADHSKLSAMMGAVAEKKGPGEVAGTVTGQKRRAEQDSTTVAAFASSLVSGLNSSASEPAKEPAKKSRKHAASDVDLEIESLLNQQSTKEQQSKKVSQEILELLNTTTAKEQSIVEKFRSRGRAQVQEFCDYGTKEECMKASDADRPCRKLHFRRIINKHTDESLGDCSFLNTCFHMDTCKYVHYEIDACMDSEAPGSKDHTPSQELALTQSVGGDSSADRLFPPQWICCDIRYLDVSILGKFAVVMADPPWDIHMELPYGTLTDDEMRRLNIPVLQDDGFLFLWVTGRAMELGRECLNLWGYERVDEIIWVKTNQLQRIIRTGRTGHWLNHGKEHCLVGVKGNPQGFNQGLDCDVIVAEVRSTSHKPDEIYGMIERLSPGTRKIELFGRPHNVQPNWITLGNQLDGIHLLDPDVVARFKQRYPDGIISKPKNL
T2 sequence (Q9HCE5 whole entry partner, the tested form may be a part): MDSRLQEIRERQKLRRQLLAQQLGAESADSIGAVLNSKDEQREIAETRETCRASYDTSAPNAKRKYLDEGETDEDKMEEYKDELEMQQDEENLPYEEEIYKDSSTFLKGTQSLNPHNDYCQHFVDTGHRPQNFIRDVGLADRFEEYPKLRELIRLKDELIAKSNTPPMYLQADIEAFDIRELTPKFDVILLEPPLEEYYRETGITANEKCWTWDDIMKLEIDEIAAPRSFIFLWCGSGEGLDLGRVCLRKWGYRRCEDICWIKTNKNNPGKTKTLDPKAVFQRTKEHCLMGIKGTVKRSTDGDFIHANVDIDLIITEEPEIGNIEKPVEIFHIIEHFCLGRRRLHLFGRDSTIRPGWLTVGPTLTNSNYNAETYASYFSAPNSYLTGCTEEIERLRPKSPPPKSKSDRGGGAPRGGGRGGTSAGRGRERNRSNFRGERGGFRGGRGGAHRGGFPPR
Put plainly: METTL3-14 enzyme-based bioluminescence assay (screening assay). It counts as biochemical. As to conditions: for inhibition at 60 µM: read-out: % inhibition of METTL3-14 at 60 μM, 60 μM compound; for Km: Michaelis-Menten, Figure S1, read-out: Km of METTL3-14 substrates. The protocol: An enzymatic bioluminescence assay was established to identify the METTL3-14 inhibitor through screening. […] METTL3-14 activity was assessed by measuring the luminescence using a Victor multilabel reader (PerkinElmer, Waltham, MA, USA). The IC50 values were calculated by a nonlinear regression analysis using OriginPro 9.1 software (OriginLab).
To confirm the mechanism of action of eltrombopag in the METTL3-14 complex, 30 nM METTL3-14 and serially diluted eltrombopag were reacted with various concentrations of SAM or RNA substrate and saturating concentrations of the other substrate (3 μM SAM or 2 μM RNA substrate) for 20 min. To evaluate the inhibitory activity in a single form of METTL3 and METTL14, 1 μM of METTL3 and 300 nM of METTL14 were incubated with 1 μM of SAM, 500 nM of RNA substrates, and serially diluted eltrombopag for 5 h. To measure the inhibitory activity in the truncated form of the METTL3-14 complex, 1 μM of the truncated METTL3-14 complex was reacted with 1 μM of SAM, 500 nM of RNA substrates, and serially diluted eltrombopag for 5 h.

In data set [1] the test system is MOLM-13 cells. Put plainly: Combinatorial analysis of AML drugs with eltrombopag (EZ-cytox, Synergyfinder). As to conditions: Homo sapiens, MOLM-13, 72 h, eltrombopag 0 nM; for inhibition at 0.00167 µM: AML drug alone 1.67 nM; for inhibition at 0.005 µM: AML drug alone 5 nM; for inhibition at 0.015 µM: AML drug alone 15 nM; for inhibition at 0.045 µM: AML drug alone 45 nM. It counts as cell-based. The protocol:
The MOLM-13 cells were seeded in white 96-well clear bottomed plates with 50 μL of medium (5000 cells/well). The plated cells were treated with serially diluted eltrombopag and current AML drugs, including venetoclax, cytarabine, gilteritinib, and sorafenib, to a final volume of 100 μL and incubated for 72 h at 37 °C. After incubation, 10 μL of EZ-cytox kit reagent from the EZ-cytox cell viability assay kit (DaeiLab) was added to each well and then incubated for 3 h at 37 °C. The absorbance of metabolically active cells was measured at a wavelength of 450 nm using a Victor multilabel reader (PerkinElmer). The synergy scores of each combination were quantified by the HAS model, ZIP model, Loewe additivity model, and Bliss independence models using Synergyfinder software. Positive or negative synergy scores obtained through these models represent synergy and antagonism, respectively.

Data set [2] deals with MOLM-13 cells. In words: Anti-proliferative assay (EZ-cytox), MOLM-13. The class given is cell-based. As to conditions: Homo sapiens. The protocol:
The MOLM-13, MOLM-14, HL60, MV4-11, and THP-1 cells were seeded in white 96-well clear bottomed plates with 100 μL of medium (5000 cells/well). The plated cells were treated with serially diluted compounds and incubated for 72 h at 37 °C. After incubation, 10 μL of EZ-cytox kit reagent from the EZ-cytox cell viability assay kit (DaeiLab, Seoul, Korea) was added to each well and then incubated for 3 h at 37 °C. The absorbance of metabolically active cells was measured at a wavelength of 450 nm using a Victor multilabel reader (PerkinElmer). The GI50 values were calculated by nonlinear regression analysis using OriginPro 9.1 software (OriginLab).

A further data set deals with T3, SMYD3 (Homo sapiens, UniProt Q9H7B4).
T3 construct: purchased Reaction Biology (Malvern, PA, USA), contract assay
T3 sequence (Q9H7B4 1-428): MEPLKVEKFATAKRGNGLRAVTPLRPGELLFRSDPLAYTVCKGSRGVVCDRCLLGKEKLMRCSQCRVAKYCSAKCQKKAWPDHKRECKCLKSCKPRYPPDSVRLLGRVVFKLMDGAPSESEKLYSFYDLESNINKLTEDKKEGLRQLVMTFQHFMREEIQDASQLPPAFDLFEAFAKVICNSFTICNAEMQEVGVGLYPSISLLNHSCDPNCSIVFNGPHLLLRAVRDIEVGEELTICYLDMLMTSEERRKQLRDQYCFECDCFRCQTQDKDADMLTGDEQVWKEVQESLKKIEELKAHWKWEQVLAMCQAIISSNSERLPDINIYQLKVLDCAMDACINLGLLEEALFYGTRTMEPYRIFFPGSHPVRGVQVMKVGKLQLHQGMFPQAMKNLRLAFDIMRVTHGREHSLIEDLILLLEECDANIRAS
Put plainly: Methyltransferase selectivity panel (MT HotSpot radioisotope assay), SMYD3. The class given is biochemical. The procedure:
as §1

The next data set concerns the target T4, PRDM9 (Homo sapiens, UniProt Q9NQV7).
T4 construct: purchased Reaction Biology (Malvern, PA, USA), contract assay
In words: Methyltransferase selectivity panel (MT HotSpot radioisotope assay), PRDM9. The class given is biochemical. As to conditions: positive control. The procedure:
as §1

The next data set deals with T5, SETD2 (Homo sapiens, UniProt Q9BYW2).
T5 construct: purchased Reaction Biology (Malvern, PA, USA), contract assay
T5 sequence (Q9BYW2 whole entry): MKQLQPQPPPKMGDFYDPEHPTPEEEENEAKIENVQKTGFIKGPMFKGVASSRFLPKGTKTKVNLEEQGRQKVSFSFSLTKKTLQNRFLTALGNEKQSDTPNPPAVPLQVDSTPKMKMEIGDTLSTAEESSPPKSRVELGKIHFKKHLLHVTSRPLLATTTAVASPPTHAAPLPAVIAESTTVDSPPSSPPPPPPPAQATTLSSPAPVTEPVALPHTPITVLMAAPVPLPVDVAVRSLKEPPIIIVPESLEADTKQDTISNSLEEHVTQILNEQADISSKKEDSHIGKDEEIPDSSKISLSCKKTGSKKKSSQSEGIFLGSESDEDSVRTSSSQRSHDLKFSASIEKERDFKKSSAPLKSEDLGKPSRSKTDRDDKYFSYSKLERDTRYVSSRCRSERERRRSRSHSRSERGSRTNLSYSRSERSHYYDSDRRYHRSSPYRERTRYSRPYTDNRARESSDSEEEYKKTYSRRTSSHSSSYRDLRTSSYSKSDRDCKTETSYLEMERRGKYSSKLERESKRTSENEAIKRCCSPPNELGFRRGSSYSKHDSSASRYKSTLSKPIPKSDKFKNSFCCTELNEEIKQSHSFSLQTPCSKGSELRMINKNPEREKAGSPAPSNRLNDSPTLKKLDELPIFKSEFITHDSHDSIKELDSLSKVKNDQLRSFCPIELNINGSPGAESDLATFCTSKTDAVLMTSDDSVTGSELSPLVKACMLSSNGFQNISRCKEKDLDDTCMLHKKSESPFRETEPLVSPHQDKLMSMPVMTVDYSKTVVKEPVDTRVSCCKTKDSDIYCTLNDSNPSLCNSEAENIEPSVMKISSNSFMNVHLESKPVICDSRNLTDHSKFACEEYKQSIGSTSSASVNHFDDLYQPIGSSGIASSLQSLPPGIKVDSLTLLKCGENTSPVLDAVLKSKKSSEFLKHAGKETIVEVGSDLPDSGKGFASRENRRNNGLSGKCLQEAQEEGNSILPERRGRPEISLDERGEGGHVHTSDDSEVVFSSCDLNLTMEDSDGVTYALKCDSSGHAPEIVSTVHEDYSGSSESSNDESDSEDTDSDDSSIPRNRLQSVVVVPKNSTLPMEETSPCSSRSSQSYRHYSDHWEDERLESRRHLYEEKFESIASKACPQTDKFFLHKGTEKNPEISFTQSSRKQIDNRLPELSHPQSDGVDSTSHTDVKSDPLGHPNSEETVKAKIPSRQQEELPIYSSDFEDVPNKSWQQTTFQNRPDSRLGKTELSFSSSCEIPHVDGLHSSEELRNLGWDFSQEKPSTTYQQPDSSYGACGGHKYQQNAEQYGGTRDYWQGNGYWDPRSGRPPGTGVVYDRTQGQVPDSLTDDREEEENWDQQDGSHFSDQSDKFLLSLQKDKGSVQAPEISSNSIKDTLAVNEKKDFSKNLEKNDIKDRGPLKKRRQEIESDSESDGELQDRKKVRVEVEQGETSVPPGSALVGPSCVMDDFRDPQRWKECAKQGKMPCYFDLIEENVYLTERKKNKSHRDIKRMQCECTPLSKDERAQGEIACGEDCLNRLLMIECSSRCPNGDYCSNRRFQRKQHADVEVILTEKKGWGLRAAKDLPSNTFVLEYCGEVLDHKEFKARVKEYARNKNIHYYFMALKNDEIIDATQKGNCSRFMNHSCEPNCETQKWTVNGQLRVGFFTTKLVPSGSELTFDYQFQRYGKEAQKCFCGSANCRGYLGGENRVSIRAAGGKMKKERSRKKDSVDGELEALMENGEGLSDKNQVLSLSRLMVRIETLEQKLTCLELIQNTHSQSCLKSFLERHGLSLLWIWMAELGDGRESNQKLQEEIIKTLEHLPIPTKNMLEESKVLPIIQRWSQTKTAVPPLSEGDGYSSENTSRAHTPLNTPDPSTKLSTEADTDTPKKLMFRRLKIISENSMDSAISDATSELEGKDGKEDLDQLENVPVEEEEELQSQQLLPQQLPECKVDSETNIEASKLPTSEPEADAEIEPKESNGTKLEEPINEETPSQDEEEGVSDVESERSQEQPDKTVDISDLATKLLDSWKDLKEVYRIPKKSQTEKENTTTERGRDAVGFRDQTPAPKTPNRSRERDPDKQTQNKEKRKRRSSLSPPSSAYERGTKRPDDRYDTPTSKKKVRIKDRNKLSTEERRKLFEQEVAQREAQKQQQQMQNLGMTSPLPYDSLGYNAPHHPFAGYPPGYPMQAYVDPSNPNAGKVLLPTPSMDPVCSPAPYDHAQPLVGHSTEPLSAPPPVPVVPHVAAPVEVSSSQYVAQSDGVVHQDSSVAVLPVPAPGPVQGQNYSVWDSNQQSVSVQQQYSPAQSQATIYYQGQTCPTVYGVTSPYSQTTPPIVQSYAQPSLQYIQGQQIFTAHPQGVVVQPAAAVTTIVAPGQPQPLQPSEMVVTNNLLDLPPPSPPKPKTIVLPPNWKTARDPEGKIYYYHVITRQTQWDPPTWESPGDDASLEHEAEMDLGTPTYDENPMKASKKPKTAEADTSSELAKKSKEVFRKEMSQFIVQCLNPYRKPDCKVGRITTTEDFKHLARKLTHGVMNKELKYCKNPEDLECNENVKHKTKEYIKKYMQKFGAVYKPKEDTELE
Put plainly: Methyltransferase selectivity panel (MT HotSpot radioisotope assay), SETD2. It counts as biochemical. As to conditions: positive control. The protocol:
as §1

The target of the next data set is T6, MLL4 complex (Homo sapiens, UniProt Q9UMN6).
T6 construct: purchased Reaction Biology (Malvern, PA, USA), contract assay
Put plainly: Methyltransferase selectivity panel (MT HotSpot radioisotope assay), MLL4 complex. It counts as biochemical. As to conditions: positive control. The protocol: as §1

Data set [3] relates to m^6A/A on poly-A+-enriched mRNA of MOLM-13 cells. More on the design: method as in PMID 34237194. As to conditions: cited from earlier work.
Data set [4] concerns m^6A methylation of MOLM-13 transcriptome. Set-up: method as in PMID 33902106. As to conditions: cited from earlier work.

T1 sequence (Q8TEK3 whole entry): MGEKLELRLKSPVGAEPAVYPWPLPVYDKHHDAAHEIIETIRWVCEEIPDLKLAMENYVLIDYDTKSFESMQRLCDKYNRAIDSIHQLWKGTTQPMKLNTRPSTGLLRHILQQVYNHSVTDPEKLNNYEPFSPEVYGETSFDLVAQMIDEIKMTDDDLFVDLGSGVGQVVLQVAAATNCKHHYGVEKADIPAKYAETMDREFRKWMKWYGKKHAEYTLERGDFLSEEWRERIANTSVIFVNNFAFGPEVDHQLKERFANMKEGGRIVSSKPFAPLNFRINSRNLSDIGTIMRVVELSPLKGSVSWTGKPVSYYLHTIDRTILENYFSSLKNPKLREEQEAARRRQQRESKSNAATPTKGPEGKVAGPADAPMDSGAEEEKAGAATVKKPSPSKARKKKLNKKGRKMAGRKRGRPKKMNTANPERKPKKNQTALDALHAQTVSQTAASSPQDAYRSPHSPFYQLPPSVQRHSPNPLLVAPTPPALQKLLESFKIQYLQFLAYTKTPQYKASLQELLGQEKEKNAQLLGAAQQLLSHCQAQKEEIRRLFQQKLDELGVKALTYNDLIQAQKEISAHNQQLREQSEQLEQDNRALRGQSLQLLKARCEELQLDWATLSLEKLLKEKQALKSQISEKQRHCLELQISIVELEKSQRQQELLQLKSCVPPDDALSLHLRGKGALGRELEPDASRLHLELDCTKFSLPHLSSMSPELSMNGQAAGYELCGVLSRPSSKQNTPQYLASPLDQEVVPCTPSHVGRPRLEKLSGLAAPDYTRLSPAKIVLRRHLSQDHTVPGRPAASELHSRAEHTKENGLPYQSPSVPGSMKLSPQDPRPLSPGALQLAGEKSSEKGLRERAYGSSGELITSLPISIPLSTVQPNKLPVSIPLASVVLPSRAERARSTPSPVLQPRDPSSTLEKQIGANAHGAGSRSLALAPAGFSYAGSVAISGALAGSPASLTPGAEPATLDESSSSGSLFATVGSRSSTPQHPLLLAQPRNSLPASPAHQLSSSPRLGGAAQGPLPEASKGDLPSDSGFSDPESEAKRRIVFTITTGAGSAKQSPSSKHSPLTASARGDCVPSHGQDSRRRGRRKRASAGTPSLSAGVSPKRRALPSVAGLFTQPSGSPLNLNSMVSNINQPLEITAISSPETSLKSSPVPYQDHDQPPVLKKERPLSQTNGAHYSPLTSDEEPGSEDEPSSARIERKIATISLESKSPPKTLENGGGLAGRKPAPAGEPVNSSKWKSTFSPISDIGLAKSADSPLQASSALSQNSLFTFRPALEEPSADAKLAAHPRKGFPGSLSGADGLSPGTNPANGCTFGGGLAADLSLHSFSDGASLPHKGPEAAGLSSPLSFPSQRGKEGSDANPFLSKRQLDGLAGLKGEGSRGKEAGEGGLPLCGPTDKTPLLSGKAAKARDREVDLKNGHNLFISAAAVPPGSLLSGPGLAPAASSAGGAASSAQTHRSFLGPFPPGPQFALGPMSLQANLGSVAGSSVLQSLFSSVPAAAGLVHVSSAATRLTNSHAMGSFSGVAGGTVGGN

As usually defined, the IC50 is the midpoint of a concentration-inhibition curve. At DOT1L, `CN1C(=O)[C@@]23C[C@]4([C@]56C[C@@]78SS[C@@](CO)(C(=O)N7[C@H]5Nc5ccccc56)N(C)C8=O)c5ccccc5N[C@@H]4N2C(=O)[C@]1(CO)SS3` [Chaetocin] registered an IC50 of 0.217 µM.
For orientation: inhibition means how much of the control response was suppressed. Consider `CC1=NN(c2ccc(C)c(C)c2)C(=O)/C1=N\Nc1cccc(-c2ccccc2)c1O` [Compound 14a], for which, on METTL3-14 complex, the inhibition at 60 µM came out at 23.3%.
On the same count and under the same terms, as for `COC(=O)c1cccc(-c2cccc(N/N=C3\C(=O)N(c4ccc(C)c(C)c4)N=C3C)c2O)c1` [Compound 14b], the figure is 23.7%.
With `CC1=NN(c2ccc(C)c(C)c2)C(=O)/C1=N\Nc1cccc(-c2cccc(C(=O)O)c2)c1` [Compound 14d], the IC50 at METTL3-14 complex (full length METTL3-14 30 nM, SAM 300 nM, RNA substrate 300 nM, 1 h, read-out: IC50, METTL3-14 inhibition, bioluminescence enzyme based assay) is 15.3 µM. Further, the “fold decrease of METTL3-14 inhibitory activity versus eltrombopag” value on METTL3-14 complex (relative to eltrombopag) turned out to be 4 fold.
In the case of `Nc1ccn([C@@H]2O[C@H](CO)[C@@H](O)[C@@H]2O)c(=O)n1` [Cytarabine], in the data set on MOLM-13 cells [1], the inhibition at 0.00167 µM amounted to 2.2 ± 3.1%, the inhibition at 0.005 µM was found to be 20.7 ± 4.33%, the inhibition at 0.015 µM turned out to be 48.3 ± 1.93% and the inhibition at 0.045 µM was determined as 75.7 ± 1.35%.
What is called GI50 is the concentration at which growth is held to half of that of the control. Low readings indicate more potent growth inhibition, high ones less potent growth inhibition. Regarding `CCc1nc(C(N)=O)c(Nc2ccc(N3CCC(N4CCN(C)CC4)CC3)c(OC)c2)nc1NC1CCOCC1` [Gilteritinib], the GI50 with MOLM-13 cells [2] (MOLM-13, 72 h, positive control, Figure S3) stood at 0.0166 µM.
In the case of `Nc1ncnc2c1ncn2[C@@H]1O[C@H](CSCC[C@H](N)C(=O)O)[C@@H](O)[C@H]1O` [SAH, S-(5′-adenosyl)-L-homocysteine], the IC50 on SMYD3 was 35.3 µM; at PRDM9, 4.16 µM; on SETD2 it was 10.8 µM; at MLL4 complex it was 5.09 µM.
What is called Km is the concentration of substrate that gives half-maximal velocity. Take `C[S+](CC[C@H](N)C(=O)O)C[C@H]1O[C@@H](n2cnc3c(N)ncnc32)[C@H](O)[C@@H]1O` (stereo partly drawn) [SAM, S-(5′-adenosyl)-L-methionine]: at METTL3-14 complex, the Km amounted to 0.0986 µM.
Turning to `Nc1ncnc2c1ncn2[C@@H]1O[C@H](C[C@@H](N)CC[C@H](N)C(=O)O)[C@@H](O)[C@H]1O` [Sinefungin, sinefungin], the GI50 in the data set on MOLM-13 cells [2] (MOLM-13, 72 h) is 24.8 ± 1.2 µM.
As for `CC1(C)CCN(Cc2ccc(C(=O)NC[C@]3(O)CCCN(c4cc(NCc5ccccc5)ncn4)C3)c(O)c2)CC1` [UZH1a], in data set [3], the “maximum m^6A inhibition, previously reported” value is given as 60–70%.
For the compound `CC1(C)CCC(CN2CCN(c3ccc(C(=O)NS(=O)(=O)c4ccc(NCC5CCOCC5)c([N+](=O)[O-])c4)c(Oc4cnc5[nH]ccc5c4)c3)CC2)=C(c2ccc(Cl)cc2)C1` [Venetoclax], in the data set with MOLM-13 cells [1], the inhibition at 0.00167 µM is 12.8 ± 3.69%, the inhibition at 0.005 µM is 29.2 ± 0.39%, the inhibition at 0.015 µM came out at 54.5 ± 3.76% and the inhibition at 0.045 µM was 77 ± 0.92%.
As to “RNA: RNA substrate 5′-ACGAGUCCUGGACUGAAACGGACUUGU-3′ (RNA, backbone not given here)”, in the data set with METTL3-14 complex, the Km was determined as 0.0705 µM.
For STM2457, the “share of hypermethylation, previously reported” value in [4] is given as “about 30%”.
